Source: patent US11414416B1, “Compounds and uses thereof” (Foghorn Therapeutics Inc., priority 2019, dated 2022)
Like-named read-outs stand apart in the source and are kept apart here.

Experiments:
[1] = target: Nanoluciferase-BRD9 fusion protein (Homo sapiens (Human), UniProt Q9H8M2); assay: SYO1 BRD9 NanoLuc degradation assay; type: cell-based; settings: SYO-1 cells expressing 3×FLAG-NLuc-BRD9, 6 hours; for DC50: read-out: SYO1 BRD9-NanoLuc degradation IC50
In short: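 Degradation was read as loss of nanoluciferase signal (Nano-Glo) after 6 h compound exposure in a stable SYO-1 line carrying 3×FLAG-NLuc-BRD9 (8000 cells/well). Normalised between DMSO (high) and a 1 μM known BRD9 degrader (low).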

BRD9 bromodomain = BRD9 bromodomain (Homo sapiens (Human), UniProt Q9H8M2); assay: BRD9 bromodomain TR-FRET competition binding assay; settings: Table 4; competition with biotinylated ligand, 3 nM Flag-BRD9, 90 minutes
Chain of BRD9 bromodomain (Q9H8M2 133-239): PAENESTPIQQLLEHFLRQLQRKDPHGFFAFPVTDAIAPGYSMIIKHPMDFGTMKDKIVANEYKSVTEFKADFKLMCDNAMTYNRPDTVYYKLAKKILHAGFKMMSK
Description: Procedure: His-Flag-BRD9 (P133-K239; Swiss Prot Q9H8M2; SEQ ID NO:1 mgsshhhhhhenlyfq/gdykddddkgslevlfqg/[…] […]) was cloned, expressed, purified, and then treated with TEV protease. Cleaved His tag was removed by purification. The binding of a biotinylated small molecule ligand of BRD9 was assessed via the LANCE® TR-FRET platform (PerkinElmer), and the compounds were assayed for inhibitory activity against this interaction.
A mixture of biotinylated-ligand and SureLight™ Allophycocyanin-Streptavidin (APC-SA, PerkinElmer AD0201) in 50 mM HEPES (pH 7.4), 50 mM NaCl, 1 mM TCEP (pH 7), 0.01% (v/v) Tween-20, 0.01% (w/v) bovine serum albumin was added to a white 384-well PerkinElmer Proxiplate Plus plate. DMSO or 3-fold serially diluted compounds were then added to the Proxiplate followed by addition of Flag-BRD9. After a 10-minute incubation at room temperature, Eu-W1024 anti-FLAG (PerkinElmer, AD0273) was added. The final reaction mixture that contained 3.75 nM biotinylated ligand, 3 nM Flag-BRD9, 7.5 nM SureLight™ Allophycocyanin-Streptavidin, and 0.2 nM Eu-W1024 anti-FLAG was incubated at room temperature for 90 minutes.
Results: The plates were then read on a PerkinElmer Envision plate reader to determine the ratio of emission at 665 nm over 615 nm. […]

Chain of Nanoluciferase-BRD9 fusion protein (Q9H8M2 whole entry, the tested form may be a part): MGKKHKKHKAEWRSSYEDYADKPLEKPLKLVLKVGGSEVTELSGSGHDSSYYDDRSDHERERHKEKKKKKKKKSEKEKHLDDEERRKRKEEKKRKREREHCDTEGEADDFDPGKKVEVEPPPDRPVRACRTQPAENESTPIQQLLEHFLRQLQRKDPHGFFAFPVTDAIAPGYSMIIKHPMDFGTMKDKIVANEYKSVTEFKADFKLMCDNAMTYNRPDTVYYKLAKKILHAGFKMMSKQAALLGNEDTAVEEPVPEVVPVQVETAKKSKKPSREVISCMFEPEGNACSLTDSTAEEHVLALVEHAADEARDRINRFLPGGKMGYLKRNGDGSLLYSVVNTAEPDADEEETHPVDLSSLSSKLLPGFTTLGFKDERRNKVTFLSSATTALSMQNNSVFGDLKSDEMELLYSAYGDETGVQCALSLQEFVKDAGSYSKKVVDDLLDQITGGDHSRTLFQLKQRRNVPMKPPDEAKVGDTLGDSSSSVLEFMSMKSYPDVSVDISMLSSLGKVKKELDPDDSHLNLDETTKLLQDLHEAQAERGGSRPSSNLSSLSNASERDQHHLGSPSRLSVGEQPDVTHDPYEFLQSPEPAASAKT

IC50 (BRD9 bromodomain)	DC50 ([1]; Table 5B)	Structure (SMILES)	other results
	< 10 nM	COc1cc(-c2cn(C)c(=O)c3cnccc23)cc(OC)c1CN(C)CCCCCCCCNc1cccc2c1CN(C1CCC(=O)NC1=O)C2=O (centres unmarked) [DD4]	
	10 to 100 nM	COc1cc(-c2cn(C)c(=O)c3cnccc23)cc(OC)c1CN(C)CCCCCCCCNc1cccc2nc(C)n(C3CCC(=O)NC3=O)c(=O)c12 (centres unmarked) [DD5]	
	10 to 100 nM	COc1cc(-c2cn(C)c(=O)c3cnccc23)cc(OC)c1CN(C)CC(=O)NCCN1Cc2cc3c(cc2C1)C(=O)N(C1CCC(=O)NC1=O)C3=O (centres unmarked) [DD6]	
	< 10 nM	COc1cc(-c2cn(C)c(=O)c3cnccc23)cc(OC)c1CN(C)CC(=O)NCCCCOc1ccc(-c2ccc3c(c2)C(=O)C(C2CCC(=O)NC2=O)C3=O)cc1 (centres unmarked) [DD7]	
	< 10 nM	COc1cc(-c2cn(C)c(=O)c3cnccc23)cc(OC)c1CN(C)CC(=O)NCCCCCOc1ccc(-c2ccc3c(c2)C(=O)N(C2CCC(=O)NC2=O)C3=O)cc1 (centres unmarked) [DD8]	
	< 10 nM	COc1cc(-c2cc(C)c(=O)n(C)c2)cc(OC)c1CN1Cc2cc3c(cc2C1)C(=O)N(C1CCC(=O)NC1=O)C3=O (centres unmarked) [DD9]	
	100 to 1000 nM	COc1cc(-c2cc(C)c(F)c3ccccc23)cc(OC)c1CN1CCC(CN2CCC3(CC2)CC(Oc2ccc4c(c2)C(=O)N(C2CCC(=O)NC2=O)C4=O)C3)CC1 (centres unmarked) [DD10]	

Further lines, the compound ahead of its results:

Structure (SMILES)	IC50 (BRD9 bromodomain)	DC50 ([1]; Table 5B)	other results
COc1cc(-c2cn(C)c(=O)c3cnccc23)cc(OC)c1CN1CC(C(=O)NCCCCCCCCNc2cccc3c2C(=O)N(C2CCC(=O)NC2=O)C3=O)C1 (centres unmarked) [Compound D1, 1-[[2,6-dimethoxy-4-(2-methyl-1-oxo-1,2-dihydro-2,7-naphthyridin-4-yl)phenyl]methyl]-N-(8-[[2-(2,6-dioxopiperidin-3-yl)-1,3-dioxo-2,3-dihydro-1H-isoindol-4-yl]amino]octyl)azetidine-3-carboxamide formic acid]	10 to 100 nM		IC50 ([1]; Table 5A): < 10 nM
COc1cc(-c2cn(C)c(=O)c3cnccc23)cc(OC)c1CN(C)CC(=O)N1CCC(C2CCN(C(=O)COc3cccc4c3C(=O)N(C3CCC(=O)NC3=O)C4=O)CC2)CC1 (centres unmarked) [Compound D2, 4-(2-[1-[2-([[2,6-dimethoxy-4-(2-methyl-1-oxo-1,2-dihydro-2,7-naphthyridin-4-yl)phenyl]methyl](methyl)amino)acetyl]-[4,4-bipiperidin]-1-yl]-2-oxoethoxy)-2-(2,6-dioxopiperidin-3-yl)-2,3-dihydro-1H-isoindole-1,3-dione]	< 10 nM		DC50 ([1]; Table 5A): 10 to 100 nM
COc1cc(-c2cn(C)c(=O)c3cnccc23)cc(OC)c1CN1CC(C(=O)NCCCCCNc2cccc3c2C(=O)N(C2CCC(=O)NC2=O)C3=O)C1 (centres unmarked) [Compound D3, 1-[[2,6-dimethoxy-4-(2-methyl-1-oxo-1,2-dihydro-2,7-naphthyridin-4-yl)phenyl]methyl]-N-(5-[[2-(2,6-dioxopiperidin-3-yl)-1,3-dioxo-2,3-dihydro-1H-isoindol-4-yl]amino]pentyl) azetidine-3-carboxamide]	< 10 nM		IC50 ([1]; Table 5A): < 10 nM
COc1cc(-c2cn(C)c(=O)c3cnccc23)cc(OC)c1CN1CC(C(=O)NCCCCCCCCNC(=O)COc2cccc3c2C(=O)N(C2CCC(=O)NC2=O)C3=O)C1 (centres unmarked) [Compound D4, N-[8-[(1-[[2,6-dimethoxy-4-(2-methyl-1-oxo-1,2-dihydro-2,7-naphthyridin-4-yl)phenyl]methyl]azetidin-3-yl)formamido]octyl]-2-[[2-(2,6-dioxopiperidin-3-yl)-1,3-dioxo-2,3-dihydro-1H-isoindol-4-yl]oxy]acetamide formic acid]	< 10 nM		DC50 ([1]; Table 5A): 10 to 100 nM
COc1cc(-c2cn(C)c(=O)c3cnccc23)cc(OC)c1CN1CC(NC(=O)CCCCCOc2cccc3c2C(=O)N(C2CCC(=O)NC2=O)C3=O)C1 (centres unmarked) [Compound D5, N-(1-[[2,6-dimethoxy-4-(2-methyl-1-oxo-1,2-dihydro-2,7-naphthyridin-4-yl)phenyl]methyl]azetidin-3-yl)-6-[[2-(2,6-dioxopiperidin-3-yl)-1,3-dioxo-2,3-dihydro-1H-isoindol-4-yl]oxy]hexanamide]	< 10 nM		DC50 ([1]; Table 5A): 10 to 100 nM
COc1cc(-c2cn(C)c(=O)c3cnccc23)cc(OC)c1CN1CC(C(=O)N2CCC(C3CCN(C(=O)COc4cccc5c4C(=O)N(C4CCC(=O)NC4=O)C5=O)CC3)CC2)C1 (centres unmarked) [Compound D6, 4-[2-[1-(1-[[2,6-dimethoxy-4-(2-methyl-1-oxo-1,2-dihydro-2,7-naphthyridin-4-yl)phenyl]methyl]azetidine-3-carbonyl)-[4,4-bipiperidin]-1-yl]-2-oxoethoxy]-2-(2,6-dioxopiperidin-3-yl)-2,3-dihydro-1H-isoindole-1,3-dione formic acid]	< 10 nM		IC50 ([1]; Table 5A): < 10 nM
COc1cc(-c2cn(C)c(=O)c3cnccc23)cc(OC)c1CN1CC(C(=O)NCCOCCOCCNc2cccc3c2C(=O)N(C2CCC(=O)NC2=O)C3=O)C1 (centres unmarked) [Compound D7, 1-[[2,6-dimethoxy-4-(2-methyl-1-oxo-1,2-dihydro-2,7-naphthyridin-4-yl)phenyl]methyl]-N-[2-[2-(2-[[2-(2,6-dioxopiperidin-3-yl)-1,3-dioxo-2,3-dihydro-1H-isoindol-4-yl]amino]ethoxy)ethoxy]ethyl]azetidine-3-carboxamide formic acid]	< 10 nM		DC50 ([1]; Table 5A): 10 to 100 nM
COc1cc(-c2cn(C)c(=O)c3cnccc23)cc(OC)c1CN1CC(C(=O)NCCCCCCCCNc2cccc3c2C(=O)N(C2CCC(=O)N(C)C2=O)C3=O)C1 (centres unmarked) [Compound D8, 1-[[2,6-dimethoxy-4-(2-methyl-1-oxo-1,2-dihydro-2,7-naphthyridin-4-yl)phenyl]methyl]-N-(8-[[2-(1-methyl-2,6-dioxopiperidin-3-yl)-1,3-dioxo-2,3-dihydro-1H-isoindol-4-yl]amino]octyl)azetidine-3-carboxamide formic acid]	< 10 nM		DC50 ([1]; Table 5A): > 1000 nM
COc1cc(-c2cn(C)c(=O)c3cnccc23)cc(OC)c1CN1CC(CC(=O)NCCCCCCCCNc2cccc3c2C(=O)N(C2CCC(=O)NC2=O)C3=O)C1 (centres unmarked) [Compound D9, 2-(1-[[2,6-dimethoxy-4-(2-methyl-1-oxo-1,2-dihydro-2,7-naphthyridin-4-yl)phenyl]methyl]azetidin-3-yl)-N-(8-[[2-(2,6-dioxopiperidin-3-yl)-1,3-dioxo-2,3-dihydro-1H-isoindol-4-yl]amino]octyl)acetamide formic acid]	< 10 nM		IC50 ([1]; Table 5A): < 10 nM
COc1cc(-c2cn(C)c(=O)c3cnccc23)cc(OC)c1CN1CC2CN(C(=O)CCOCCOc3cccc4c3C(=O)N(C3CCC(=O)NC3=O)C4=O)CCC21 (centres unmarked) [Compound D92]	< 10 nM		
COc1cc(-c2cc(C)cc3ccccc23)cc(OC)c1CN1CCC(CN2CCC3(CC2)CC(Oc2ccc4c(c2)C(=O)N(C2CCC(=O)NC2=O)C4=O)C3)CC1 (centres unmarked) [DD11]			DC50 ([1]; Table 5C): > 1000 nM
COc1cccc(OC)c1CN1CCC2(CC1)CN(c1ccc3c(c1)C(=O)N(C1CCC(=O)NC1=O)C3)C2 (centres unmarked) [DD12]			DC50 ([1]; Table 5C): > 1000 nM
COc1cc(-c2cccc3c(=O)n(C)ccc23)cc(OC)c1CN1CCC2(CC1)CN(c1ccc3c(c1)C(=O)N(C1CCC(=O)NC1=O)C3)C2 (centres unmarked) [DD13]			DC50 ([1]; Table 5C): 10 to 100 nM
COc1cccc(OC)c1CN1CCN(c2ccc3c(c2)C(=O)N(C2CCC(=O)NC2=O)C3)CC1 (centres unmarked) [DD14]			DC50 ([1]; Table 5C): > 1000 nM
COc1cc(-c2nc(N)nc3[nH]cnc23)cc(OC)c1CN1CCC2(CC1)CN(c1ccc3c(c1)C(=O)N(C1CCC(=O)NC1=O)C3)C2 (centres unmarked) [DD15]			DC50 ([1]; Table 5C): 10 to 100 nM
Cn1ccc2oc(C(=O)NC3CCN(c4ccc5c(c4)C(=O)N(C4CCC(=O)NC4=O)C5)CC3)cc2c1=O (centres unmarked) [DD16]			DC50 ([1]; Table 5C): 10 to 100 nM
